Literature values as cited in patent publication US20200054560A1 (Alnova Pharmaceuticals, Ltd., priority 2017, published 2020).

CC(=O)c1c(C)c2cnc(Nc3ccc(N4CCNCC4)cn3)nc2n(C2CCCC2)c1=O [Palbociclib, 6-acetyl-8-cyclopentyl-5-methil-2-(5-piperazin-1-yl-pyridin-2-ylamino)-8H-pyrido [2,3-d] pyridin-7-one]
solubility in N,N-dimethylformamide (N,N-dimethylformamide): slightly soluble
solubility above pH 4 (above pH 4): reduces significantly
solubility behaviour at or below pH 4 (at or below pH 4): high-solubility compound
solubility in dimethyl sulfoxide (dimethyl sulfoxide): slightly soluble
solubility in methanol (methanol): very slightly soluble
solubility in water (water): very slightly soluble
